The results in this text go back to patent US20250034139A1, “AMINE COMPOUNDS HAVING ANTI-INFLAMMATORY, ANTIFUNGAL, ANTIPARASITIC, AND ANTICANCER ACTIVITY” (PHARMA CINQ, LLC, priority 2013, published 2025).

Each structure is given as a SMILES string.

The test system of one assay is 4T1 murine breast cancer cells. The assay is described as follows: Example S: in vitro anticancer screen, 4T1 cells, Wst1. It is filed as cell-based, mouse. Conditions: Mus musculus, 4T1, 18 h, 1 μM, 18 hr, Wst1; read-out: 4T1 1 μM, percent of cancer cell survival relative to vehicle treated cells. As for the experimental part: Anticancer activity against 4T1 murine breast cancer cells cancer cells was assessed in vitro by seeding 1×10^4 cells/well in flat bottom culture plates, then treating with selected 1 μM or 5 μM concentrations of compounds for 18 hr after plating. Then 10 μL of Wst1 dye reagent, a tetrazolium dye indicator for […], was added/well and incubated approximately 2 hr before being assayed on the Biotek EL800 Universal microplate reader (450 nm, reference 630 nm).
(§1) Numerical values in the Table 37 represent percent of cancer cell survival relative to vehicle treated cells at the indicated concentrations, with values under 100 indicating anticancer cytotoxic activity at the drugs concentrations tested.
Turning to `c1ccc(COc2cccc(CNc3ccnc4ccccc34)c2)cc1` [BU, N-[3-(Benzyloxy)benzyl]quinolin-4-amine], the viability at 1 µM turned out to be 17.6%.

Regarding `CCCCCCCCCCCCOCCn1cnc2c(N(C)C)nc3ccccc3c21` [FH, 1-[2-(Dodecyloxy)ethyl]-N,N-dimethyl-1H-imidazo[4,5-c]quinolin-4-amine], the viability at 1 µM amounted to 101%.

Turning to `CCCCCCCCCCCCn1cnc2cnc3ccccc3c21` [FY, 1-Dodecyl-1H-imidazo[4,5-c]quinoline], the viability at 1 µM was determined as 95.2%.

`CCCCCCCCCCOCCCn1cnc2cnc3ccccc3c21` [FZ, 1-[3-(Decyloxy)propyl]-1H-imidazo[4,5-c]quinoline]: the viability at 1 µM was 91.4%.

The assay is the same for the next values; noted with them: Mus musculus, 4T1, 18 h, 5 μM, 18 hr, Wst1; read-out: 4T1 5 μM, percent of cancer cell survival relative to vehicle treated cells.
For the compound `c1ccc(COc2cccc(CNc3ccnc4ccccc34)c2)cc1` [BU, N-[3-(Benzyloxy)benzyl]quinolin-4-amine], the viability at 5 µM turned out to be 21.4%.

In the case of `CCCCCCCCCCCCOCCn1cnc2c(N(C)C)nc3ccccc3c21` [FH, 1-[2-(Dodecyloxy)ethyl]-N,N-dimethyl-1H-imidazo[4,5-c]quinolin-4-amine], the viability at 5 µM worked out at 102%.

Regarding `CCCCCCCCCCCCn1cnc2cnc3ccccc3c21` [FY, 1-Dodecyl-1H-imidazo[4,5-c]quinoline], the viability at 5 µM was 26.8%.

Turning to `CCCCCCCCCCOCCCn1cnc2cnc3ccccc3c21` [FZ, 1-[3-(Decyloxy)propyl]-1H-imidazo[4,5-c]quinoline], the viability at 5 µM was 56.6%.

The subject of another assay is PC-3 prostate cancer cells. The assay is described as follows: Example T: sensitisation of PC-3 cells to doxorubicin, oxaliplatin, paclitaxel or vincristine, Wst1. It is filed as cell-based, human. Conditions: Homo sapiens; PC-3 cells; compound 0.4 μM alone; 72 hours; Wst1; vehicle = 100; read-out: No Chemo: percent cell survival.
As to `c1ccc(COc2cccc(CNc3ccnc4ccccc34)c2)cc1` [BU, N-[3-(Benzyloxy)benzyl]quinolin-4-amine], the viability at 0.4 µM was found to be 24%.

Staying with this assay, now noted: Homo sapiens; PC-3 cells; compound 2.5 μM alone; 72 hours; Wst1; vehicle = 100; read-out: No Chemo: percent cell survival.
Consider `CCOCCCCCCCCn1cnc2cnc3ccccc3c21` [CD, 1-(8-Ethoxyoctyl)-1H-imidazo[4,5-c]quinoline], for which the viability at 2.5 µM worked out at 16.6%.

For the compound `COCCCCCCCCn1cnc2cnc3ccccc3c21` [CE, 1-(8-Methoxyoctyl)-1H-imidazo[4,5-c]quinoline], the viability at 2.5 µM amounted to 16.2%.

Consider `CCCCCCCCCCCCn1cnc2cnc3ccccc3c21` [FY, 1-Dodecyl-1H-imidazo[4,5-c]quinoline], for which the viability at 2.5 µM came out at 36%.

Still in this assay, the particulars now being: Homo sapiens; PC-3 cells; compound 5 μM alone; 72 hours; Wst1; vehicle = 100; read-out: No Chemo: percent cell survival.
For the compound `CCCCCCCCCCCCOCCn1cnc2c(N(C)C)nc3ccccc3c21` [FH, 1-[2-(Dodecyloxy)ethyl]-N,N-dimethyl-1H-imidazo[4,5-c]quinolin-4-amine], the viability at 5 µM turned out to be 89%.

For `CCCCCCCCCCOCCCn1cnc2cnc3ccccc3c21` [FZ, 1-[3-(Decyloxy)propyl]-1H-imidazo[4,5-c]quinoline], the viability at 5 µM came out at 32.7%.

Still in this assay, the particulars now being: PC-3 cells; compound 0.4 μM + doxorubicin 3.5 μM; 72 hours; chemotherapy agent alone normalized to 100%.
In the case of `c1ccc(COc2cccc(CNc3ccnc4ccccc34)c2)cc1` [BU, N-[3-(Benzyloxy)benzyl]quinolin-4-amine], the “Doxorubicin 3.5 μM: percent cell survival” value is recorded as 48.1%.

The assay is the same for the next values; noted with them: PC-3 cells; compound 0.4 μM + oxaliplatin 100 μM; 72 hours; chemotherapy agent alone normalized to 100%.
With `c1ccc(COc2cccc(CNc3ccnc4ccccc34)c2)cc1` [BU, N-[3-(Benzyloxy)benzyl]quinolin-4-amine], the “Oxaliplatin 100 μM: percent cell survival” value amounted to 57.2%.

The same assay, now with this note: PC-3 cells; compound 0.4 μM + paclitaxel 50 μM; 72 hours; chemotherapy agent alone normalized to 100%.
On to `c1ccc(COc2cccc(CNc3ccnc4ccccc34)c2)cc1` [BU, N-[3-(Benzyloxy)benzyl]quinolin-4-amine], for which the “Paclitaxel 50 μM: percent cell survival” value is 31%.

Staying with this assay, now noted: PC-3 cells; compound 0.4 μM + vincristine 100 nM; 72 hours; chemotherapy agent alone normalized to 100%.
With `c1ccc(COc2cccc(CNc3ccnc4ccccc34)c2)cc1` [BU, N-[3-(Benzyloxy)benzyl]quinolin-4-amine], the “Vincristine 100 nM: percent cell survival” value came to 26.7%.

Still in this assay, the particulars now being: PC-3 cells; compound 2.5 μM + doxorubicin 3.5 μM; 72 hours; chemotherapy agent alone normalized to 100%.
Consider `CCOCCCCCCCCn1cnc2cnc3ccccc3c21` [CD, 1-(8-Ethoxyoctyl)-1H-imidazo[4,5-c]quinoline], for which the “Doxorubicin 3.5 μM: percent cell survival” value worked out at 19.5%.

Regarding `COCCCCCCCCn1cnc2cnc3ccccc3c21` [CE, 1-(8-Methoxyoctyl)-1H-imidazo[4,5-c]quinoline], the “Doxorubicin 3.5 μM: percent cell survival” value is 44.3%.

For the compound `CCCCCCCCCCCCn1cnc2cnc3ccccc3c21` [FY, 1-Dodecyl-1H-imidazo[4,5-c]quinoline], the “Doxorubicin 3.5 μM: percent cell survival” value was 74.6%.

The assay is the same for the next values; noted with them: PC-3 cells; compound 2.5 μM + oxaliplatin 100 μM; 72 hours; chemotherapy agent alone normalized to 100%.
Turning to `CCOCCCCCCCCn1cnc2cnc3ccccc3c21` [CD, 1-(8-Ethoxyoctyl)-1H-imidazo[4,5-c]quinoline], the “Oxaliplatin 100 μM: percent cell survival” value is 20.1%.

`COCCCCCCCCn1cnc2cnc3ccccc3c21` [CE, 1-(8-Methoxyoctyl)-1H-imidazo[4,5-c]quinoline]: the “Oxaliplatin 100 μM: percent cell survival” value was 18.8%.

For the compound `CCCCCCCCCCCCn1cnc2cnc3ccccc3c21` [FY, 1-Dodecyl-1H-imidazo[4,5-c]quinoline], the “Oxaliplatin 100 μM: percent cell survival” value is given as 91.5%.

The same assay, now with this note: PC-3 cells; compound 2.5 μM + paclitaxel 50 μM; 72 hours; chemotherapy agent alone normalized to 100%.
Consider `CCOCCCCCCCCn1cnc2cnc3ccccc3c21` [CD, 1-(8-Ethoxyoctyl)-1H-imidazo[4,5-c]quinoline], for which the “Paclitaxel 50 μM: percent cell survival” value is 23.2%.

Turning to `COCCCCCCCCn1cnc2cnc3ccccc3c21` [CE, 1-(8-Methoxyoctyl)-1H-imidazo[4,5-c]quinoline], the “Paclitaxel 50 μM: percent cell survival” value is recorded as 23.5%.

`CCCCCCCCCCCCn1cnc2cnc3ccccc3c21` [FY, 1-Dodecyl-1H-imidazo[4,5-c]quinoline]: the “Paclitaxel 50 μM: percent cell survival” value is on record as 91%.

The same assay, now with this note: PC-3 cells; compound 2.5 μM + vincristine 100 nM; 72 hours; chemotherapy agent alone normalized to 100%.
In the case of `CCOCCCCCCCCn1cnc2cnc3ccccc3c21` [CD, 1-(8-Ethoxyoctyl)-1H-imidazo[4,5-c]quinoline], the “Vincristine 100 nM: percent cell survival” value is 17.1%.

On to `COCCCCCCCCn1cnc2cnc3ccccc3c21` [CE, 1-(8-Methoxyoctyl)-1H-imidazo[4,5-c]quinoline], for which the “Vincristine 100 nM: percent cell survival” value was 15.6%.

For `CCCCCCCCCCCCn1cnc2cnc3ccccc3c21` [FY, 1-Dodecyl-1H-imidazo[4,5-c]quinoline], the “Vincristine 100 nM: percent cell survival” value turned out to be 80.1%.

The same assay, now with this note: PC-3 cells; compound 5 μM + doxorubicin 3.5 μM; 72 hours; chemotherapy agent alone normalized to 100%.
Take `CCCCCCCCCCCCOCCn1cnc2c(N(C)C)nc3ccccc3c21` [FH, 1-[2-(Dodecyloxy)ethyl]-N,N-dimethyl-1H-imidazo[4,5-c]quinolin-4-amine]: the “Doxorubicin 3.5 μM: percent cell survival” value is recorded as 79.6%.

For the compound `CCCCCCCCCCOCCCn1cnc2cnc3ccccc3c21` [FZ, 1-[3-(Decyloxy)propyl]-1H-imidazo[4,5-c]quinoline], the “Doxorubicin 3.5 μM: percent cell survival” value is recorded as 39.6%.

Staying with this assay, now noted: PC-3 cells; compound 5 μM + oxaliplatin 100 μM; 72 hours; chemotherapy agent alone normalized to 100%.
With `CCCCCCCCCCCCOCCn1cnc2c(N(C)C)nc3ccccc3c21` [FH, 1-[2-(Dodecyloxy)ethyl]-N,N-dimethyl-1H-imidazo[4,5-c]quinolin-4-amine], the “Oxaliplatin 100 μM: percent cell survival” value came to 82.3%.

Turning to `CCCCCCCCCCOCCCn1cnc2cnc3ccccc3c21` [FZ, 1-[3-(Decyloxy)propyl]-1H-imidazo[4,5-c]quinoline], the “Oxaliplatin 100 μM: percent cell survival” value was 67.7%.

The same assay, now with this note: PC-3 cells; compound 5 μM + paclitaxel 50 μM; 72 hours; chemotherapy agent alone normalized to 100%.
Take `CCCCCCCCCCCCOCCn1cnc2c(N(C)C)nc3ccccc3c21` [FH, 1-[2-(Dodecyloxy)ethyl]-N,N-dimethyl-1H-imidazo[4,5-c]quinolin-4-amine]: the “Paclitaxel 50 μM: percent cell survival” value is reported as 131.8%.

Take `CCCCCCCCCCOCCCn1cnc2cnc3ccccc3c21` [FZ, 1-[3-(Decyloxy)propyl]-1H-imidazo[4,5-c]quinoline]: the “Paclitaxel 50 μM: percent cell survival” value was 114.8%.

The same assay, now with this note: PC-3 cells; compound 5 μM + vincristine 100 nM; 72 hours; chemotherapy agent alone normalized to 100%.
For `CCCCCCCCCCCCOCCn1cnc2c(N(C)C)nc3ccccc3c21` [FH, 1-[2-(Dodecyloxy)ethyl]-N,N-dimethyl-1H-imidazo[4,5-c]quinolin-4-amine], the “Vincristine 100 nM: percent cell survival” value worked out at 114.9%.

For the compound `CCCCCCCCCCOCCCn1cnc2cnc3ccccc3c21` [FZ, 1-[3-(Decyloxy)propyl]-1H-imidazo[4,5-c]quinoline], the “Vincristine 100 nM: percent cell survival” value stood at 38.5%.

For a further assay, the system named is THP-1 cells. Kind of assay: Example D: LPS-triggered THP-1 cell death assay, acute/5-hour and chronic/48-hour. To be noted: 10 ng/ml LPS, 0.1 μM test compound, 48 hours. It counts as cell-based, Human. The procedure:
Compounds of the invention were tested at 0.1 μM versus AC in the LPS-triggered THP-1 cell death assay. Both acute/5-hour and chronic/48-hour phases of cell death were assessed. Compounds were screened in batches with DMSO as the negative control and AC as the high activity control.
For `c1ccc(COc2cccc(CNc3ccnc4ccccc34)c2)cc1` [BU, N-[3-(Benzyloxy)benzyl]quinolin-4-amine], the “Viable cell percent change, Chronic/48-hour, Mean” value (“Viable cell percent change” below) is 18.10%.

Regarding `CCOCCCCCCCCn1cnc2cnc3ccccc3c21` [CD, 1-(8-Ethoxyoctyl)-1H-imidazo[4,5-c]quinoline], the “Viable cell percent change” value was 7.55%.

For the compound `COCCCCCCCCn1cnc2cnc3ccccc3c21` [CE, 1-(8-Methoxyoctyl)-1H-imidazo[4,5-c]quinoline], the “Viable cell percent change” value worked out at 4.71%.

Staying with this assay, now noted: 0.1 μM, 5-hour and 48-hour time points.
`c1ccc(COc2cccc(CNc3ccnc4ccccc34)c2)cc1` [BU, N-[3-(Benzyloxy)benzyl]quinolin-4-amine]: the “activity relative to AC in the LPS-triggered THP-1 cell death assay, in words” value is “equivalent activity to AC at both the 5-hour and 48-hour time points”.

For a further assay, the system named is PC3 human prostate cancer cells. The assay is described as follows: Example S: in vitro anticancer screen, PC-3 cells, Wst1. It counts as cell-based. Conditions: Homo sapiens, PC-3; 0.4 μM, approximately 20 hours, Wst1; read-out: PC-3, percent of cancer cell survival relative to vehicle treated cells. As for the experimental part: Activity against PC3 human prostate cancer cells in vitro was assessed by a similar method. PC-3 prostate cancer cells were plated at 2×10^4 cells/well in 96 well flat bottom tissue culture plates, and incubated for approximately 20 hours with vehicle or test compounds at concentrations of 0.4, 0.5 or 2.5 μM as indicated for specific compounds in the right-hand column of Table 37. A 1/10th volume of Wst1 dye was added/well and incubated for two hours in the cell culture incubator. Samples were analyzed in triplicate on an EL800 Universal Microplate Reader at 450 nm, reference wavelength 630 nm.
as §1
Consider `c1ccc(COc2cccc(CNc3ccnc4ccccc34)c2)cc1` [BU, N-[3-(Benzyloxy)benzyl]quinolin-4-amine], for which the viability at 0.4 µM came to 24%.

Still in this assay, the particulars now being: Homo sapiens, PC-3; 2.5 μM, approximately 20 hours, Wst1; read-out: PC-3, percent of cancer cell survival relative to vehicle treated cells.
Turning to `CCOCCCCCCCCn1cnc2cnc3ccccc3c21` [CD, 1-(8-Ethoxyoctyl)-1H-imidazo[4,5-c]quinoline], the viability at 2.5 µM is 16.6%.

In the case of `COCCCCCCCCn1cnc2cnc3ccccc3c21` [CE, 1-(8-Methoxyoctyl)-1H-imidazo[4,5-c]quinoline], the viability at 2.5 µM was found to be 16.2%.

On to `CCCCCCCCCCCCn1cnc2cnc3ccccc3c21` [FY, 1-Dodecyl-1H-imidazo[4,5-c]quinoline], for which the viability at 2.5 µM is 36%.

The same assay, now with this note: Homo sapiens, PC-3; 5 μM, approximately 20 hours, Wst1; read-out: PC-3, percent of cancer cell survival relative to vehicle treated cells.
Regarding `CCCCCCCCCCCCOCCn1cnc2c(N(C)C)nc3ccccc3c21` [FH, 1-[2-(Dodecyloxy)ethyl]-N,N-dimethyl-1H-imidazo[4,5-c]quinolin-4-amine], the viability at 5 µM is 89%.

Regarding `CCCCCCCCCCOCCCn1cnc2cnc3ccccc3c21` [FZ, 1-[3-(Decyloxy)propyl]-1H-imidazo[4,5-c]quinoline], the viability at 5 µM stood at 32.7%.
